Data reported in US6989364B1, “Methods for treating cardiac hypertrophy by administering IFN-γ” (Genentech, Inc., priority 1998, dated 2006).

What was measured:
[1] = tested on: left ventricle of rats with pressure overload; test: Cardiac gene expression (real-time RT-PCR) in rats with pressure overload; assay type: in vivo, rat
Experimental: Experimental protocol in rats with pressure overload The rats with aortic banding randomly received subcutaneous injection of IFN-γ at 0.08 mg/k twice a day for one day before surgery and for 14 days after surgery. Sham animals were not treated. Thirteen days after treatment, a catheter was implanted into the right carotid artery under anesthesia as indicated above. One day after implantation, arterial pressure and HR were measured in conscious rats. The heart and other organs including the liver, kidney, and spleen were removed, weighed, and fixed in 10% buffered formalin for pathological studies. The left ventricle was quickly dissected and frozen with liquid nitrogen in some animals and stored at −80° C. for assessment of gene expression.
(§1) RNA preparation Total RNA was isolated using RNeasy Maxi Columns (Qïägen) according to the manufacturer's instructions.
(§2) RT-PCR Real-time RT-PCR (TaqMan) technology was used to compare the gene expression between the various treatment groups. An oligonucleotide probe containing a fluorescent reporter dye, […], at the 3′-end was designed to hybridize to the amplicon defined by two PCR primers. A 3′-blocking phosphate prevents extension of the probe. The reporter dye is released from the probe by the 5′ exonuclease activity of Taq polymerase during the extension phase of PCR reaction. […] The threshold cycle number (Ct), defined as the point where the reporter fluorescence reaches a value greater than 10 times the standard deviation of the baseline, is […] to the amount of amplicon produced from the sample. Since the fluorescence is detected during the exponential phase of the amplification, none of the reaction components are limiting. In each experiment, a control is analyzed that lacks the RNA template to monitor for contamination, and another control is included where the RT step is omitted to eliminate amplification of possible contaminating DNA as the source of the signal. Reactions are optimized to give the greatest fluorescence signal and smallest Ct by titration of magnesium and primer concentrations, and the product is run on an agarose gel to verify the presence of a single band at the predicted molecular weight. In addition, the sequence of the amplicon is screened against Genbank to eliminate the possibility of overlap with closely related genes.
For each sample the mRNA for each target gene is determined using a standard curve as described below and then normalized to the amount of glyceraldehyde-3-phosphate-dehydrogenase (GAPDH) in the sample (see below for specifics of this calculation). The relative abundance of each target gene to GAPDH can then be compared among treatment groups.
RT-PCR was performed on 1 ng of total RNA per reaction using the TaqMan Model 7700 Sequence Detector (ABI-Perkin Elmer) (Gibson et al., Genome Res. 6, 995–1001 [1996]). Amplification reaction conditions (for 50 μl) were 1×TaqMan Buffer A, 200 μM dATP, dCTP, dGTP, and 400 μM dUTP, 10% glycerol, 6.5 mM MgCl2, 50 U MuLV reverse transcriptase, 20 U RNase Inhibitor, 1.25 U AmpliTaq Gold, 100 nM forward and reverse primers, and 100 nM fluorogenic probe. RT-PCR reagents and glycerol were purchased from Perkin Elmer and Sigma, respectively. Reactions were performed in MicoAmp Optical Tubes and Caps (ABI-Perkin Elmer). TaqMan primers and probes were designed according to guidelines determined by Perkin Elmer and synthesized at Genentech, Inc., except for those for rodent GAPDH which were a generous gift from Perkin Elmer. Reverse transcription was performed at 48° C. for 30 minutes followed by heat activation of AmpliTaq Gold at 95° C. for 10 minutes. Thermal cycling was at 95° C. for 30 seconds and 60° for 1.5 minutes for 40 cycles.
Quantitation of the TaqMan results was performed as described by Heid et al., Genome Res. 6:986–994 (1996), with modifications. Briefly, standard curves (1:5 serial dilution) for each target gene of interest were run in duplicate. […]

[2] = tested on: left ventricle of male Sprague/Dawley (SD) rats; test: Cardiac gene expression (real-time RT-PCR) in rats treated with fluprostenol and/or IFN-γ; assay type: in vivo, rat; conditions: SKA, SRCA, COL I, ANF; FIG. 6
From the text: FIGS. 6A–6D Bargraphs showing the effect of fluprostenol (FLUP) and IFN-γ on: A Skeletal actin (SKA); B Sarcoplasmic reticulum calcium ATPase (SRCA); C Collagen I (COL I); D Atrial natriuretic factor (ANF) expression. Expression levels are normalized to glyceraldehyde-3-phosphate dehydrogenase (GAPDH) message. VEH is vehicle. There were 7 animals per group and the data are presented as the mean±SEM. P<0.05 vs VEH group.
as §1
as §2, with “In addition, the sequence of the amplicon is screened against Genbank to eliminate the possibility of overlap with closely related genes.” left out
Quantitation of the TaqMan results was performed as described by Heid et al., Genome Res. 6:986–994 (1996), with modifications. […]

[3] = pressure overload, ratio to glyceraldehyde-3-phosphate dehydrogenase, mean ± SEM, n = 6

Substance: IFN-γ: recombinant mouse IFN-γ (Genentech, Inc., South San Francisco, Calif., or Genzyme, Cambridge, Mass.)
- Effects of aortic constriction on α-smooth muscle actin and collagen I gene expression ([1]; banded rats, Table 3): inhibited
- ANF, atrial natriuretic factor expression [1, 3]: 3.61 ± 1.32
- COLI, collagen I expression [1, 3]: 0.77 ± 0.10
- COLIII, collagen III expression [1, 3]: 0.72 ± 0.09
- FIB, fibronectin expression [1, 3]: 0.97 ± 012
- SKA, α-skeletal actin expression [1, 3]: 2.47 ± 0.51
- SMA, α-smooth muscle actin expression [1, 3]: 0.77 ± 0.06
- βMHC, β-myosin heavy chain expression [1, 3]: 1.71 ± 0.14
- Inhibition of alterations in cardiac gene expression associated with fluprostenol induced hypertrophy [2]: inhibited all but the atrial natriuretic factor response
